{"source": "patent US20240018145A1", "about": "“[…]-DEPENDENT EN[…] TREATING OR […]” (priority 2020, published 2024)", "data": [{"test_system": "FLU A (PR/8/34)", "assay": "Flu A Neuraminidase Antiviral Assay", "type": "cell-based", "units": {"EC50": "µM"}, "values": [{"smiles": "CC1CCC2N(C)C(=O)c3c(O)c(=O)ccn3N2C1(C)c1ccccc1", "note": "(single isomer, unassigned) [Compound 29B, 7-hydroxy-1,2,5-trimethyl-1-phenyl-1,2,3,4,4a,5-hexahydrodipyrido[1,2-b:2′,1′-f][1,2,4]triazine-6,8-dione]", "EC50": 0.287}, {"smiles": "CN1C(=O)c2c(O)c(=O)ccn2N2C1CCCC2(C)c1ccccn1", "note": "(single isomer, unassigned) [Compound 30A, 7-hydroxy-1,5-dimethyl-1-(pyridin-2-yl)-1,2,3,4,4a,5-hexahydrodipyrido[1,2-b:2′,1′-f][1,2,4]triazine-6,8-dione]", "EC50": 0.0166}, {"smiles": "CN1C(=O)c2c(O)c(=O)ccn2N2C1CCCC2(C)c1ccccn1", "note": "(single isomer, unassigned) [Compound 30B, 7-hydroxy-1,5-dimethyl-1-(pyridin-2-yl)-1,2,3,4,4a,5-hexahydrodipyrido[1,2-b:2′,1′-f][1,2,4]triazine-6,8-dione]", "EC50": 5.3}, {"smiles": "CN1C(=O)c2c(O)c(=O)ccn2N2C1CCCC2(C)c1ccncc1", "note": "(single isomer, unassigned) [Compound 31A, 7-hydroxy-1,5-dimethyl-1-(pyridin-4-yl)-1,2,3,4,4a,5-hexahydrodipyrido[1,2-b:2′,1′-f][1,2,4]triazine-6,8-dione]", "EC50": 0.283}, {"smiles": "CN1C(=O)c2c(O)c(=O)ccn2N2C1CCCC2(C)c1ccncc1", "note": "(single isomer, unassigned) [Compound 31B, 7-hydroxy-1,5-dimethyl-1-(pyridin-4-yl)-1,2,3,4,4a,5-hexahydrodipyrido[1,2-b:2′,1′-f][1,2,4]triazine-6,8-dione]", "EC50": "> 8.1"}, {"smiles": "CN1C(=O)c2c(O)c(=O)ccn2N2C1CCCC21CCCc2ccccc21", "note": "(single isomer, unassigned) [Compound 32A, 7-hydroxy-5-methyl-3,3′,4,4a,4′,5-hexahydro-2H,2′H-spiro[dipyrido[1,2-b:2′,1′-f][1,2,4]triazine-1,1′-naphthalene]-6,8-dione]", "EC50": "> 8.1"}, {"smiles": "CN1C(=O)c2c(O)c(=O)ccn2N2C1CCCC21CCCc2ccccc21", "note": "(single isomer, unassigned) [Compound 32B, 7-hydroxy-5-methyl-3,3′,4,4a,4′,5-hexahydro-2H,2′H-spiro[dipyrido[1,2-b:2′,1′-f][1,2,4]triazine-1,1′-naphthalene]-6,8-dione]", "EC50": 0.156}, {"smiles": "CCCC1CCC2N(C)C(=O)c3c(O)c(=O)ccn3N2C1(C)c1ccccc1", "note": "(single isomer, unassigned) [Compound 33A, 7-hydroxy-1,5-dimethyl-1-phenyl-2-propyl-1,2,3,4,4a,5-hexahydrodipyrido[1,2-b:2′,1′-f][1,2,4]triazine-6,8-dione]", "EC50": 0.0495}, {"smiles": "CCCC1CCC2N(C)C(=O)c3c(O)c(=O)ccn3N2C1(C)c1ccccc1", "note": "(single isomer, unassigned) [Compound 33B, 7-hydroxy-1,5-dimethyl-1-phenyl-2-propyl-1,2,3,4,4a,5-hexahydrodipyrido[1,2-b:2′,1′-f][1,2,4]triazine-6,8-dione]", "EC50": 1.88}, {"smiles": "CCCC1CCC2N(C)C(=O)c3c(O)c(=O)ccn3N2C1(C)c1ccccc1", "note": "(single isomer, unassigned) [Compound 33C, 7-hydroxy-1,5-dimethyl-1-phenyl-2-propyl-1,2,3,4,4a,5-hexahydrodipyrido[1,2-b:2′,1′-f][1,2,4]triazine-6,8-dione]", "EC50": 1.31}, {"smiles": "CCCC1CCC2N(C)C(=O)c3c(O)c(=O)ccn3N2C1(C)c1ccccc1", "note": "(single isomer, unassigned) [Compound 33D, 7-hydroxy-1,5-dimethyl-1-phenyl-2-propyl-1,2,3,4,4a,5-hexahydrodipyrido[1,2-b:2′,1′-f][1,2,4]triazine-6,8-dione]", "EC50": 0.0023}, {"smiles": "CC1(c2ccccc2)CCCC2N(CC(F)(F)F)C(=O)c3c(O)c(=O)ccn3N21", "note": "(single isomer, unassigned) [Compound 34A, 7-hydroxy-1-methyl-1-phenyl-5-(2,2,2-trifluoroethyl)-1,2,3,4,4a,5-hexahydrodipyrido[1,2-b:2′,1′-f][1,2,4]triazine-6,8-dione]", "EC50": 3.09}, {"smiles": "CC1(c2ccccc2)CCCC2N(CC(F)(F)F)C(=O)c3c(O)c(=O)ccn3N21", "note": "(single isomer, unassigned) [Compound 34B, 7-hydroxy-1-methyl-1-phenyl-5-(2,2,2-trifluoroethyl)-1,2,3,4,4a,5-hexahydrodipyrido[1,2-b:2′,1′-f][1,2,4]triazine-6,8-dione]", "EC50": 0.0049}, {"smiles": "CN1C(=O)c2c(O)c(=O)ccn2N2C1CCC(C)(C)C2(C)c1ccccc1", "note": "(single isomer, unassigned) [Compound 35A, 7-hydroxy-1,2,2,5-tetramethyl-1-phenyl-1,2,3,4,4a,5-hexahydrodipyrido[1,2-b:2′,1′-f][1,2,4]triazine-6,8-dione]", "EC50": 0.138}, {"smiles": "CN1C(=O)c2c(O)c(=O)ccn2N2C1CCC(C)(C)C2(C)c1ccccc1", "note": "(single isomer, unassigned) [Compound 35B, 7-hydroxy-1,2,2,5-tetramethyl-1-phenyl-1,2,3,4,4a,5-hexahydrodipyrido[1,2-b:2′,1′-f][1,2,4]triazine-6,8-dione]", "EC50": "> 8.1"}, {"smiles": "CCN1C(=O)c2c(O)c(=O)ccn2N2C1CCCC2(C)c1ccccc1", "note": "(single isomer, unassigned) [Compound 36A, 5-ethyl-7-hydroxy-1-methyl-1-phenyl-1,2,3,4,4a,5-hexahydrodipyrido[1,2-b:2′,1′-f][1,2,4]triazine-6,8-dione]", "EC50": 0.0032}, {"smiles": "CCN1C(=O)c2c(O)c(=O)ccn2N2C1CCCC2(C)c1ccccc1", "note": "(single isomer, unassigned) [Compound 36B, 5-ethyl-7-hydroxy-1-methyl-1-phenyl-1,2,3,4,4a,5-hexahydrodipyrido[1,2-b:2′,1′-f][1,2,4]triazine-6,8-dione]", "EC50": 1.29}, {"smiles": "CC1(c2ccccc2)CCCC2N(CC3CC3)C(=O)c3c(O)c(=O)ccn3N21", "note": "(single isomer, unassigned) [Compound 37A, 5-(cyclopropylmethyl)-7-hydroxy-1-methyl-1-phenyl-1,2,3,4,4a,5-hexahydrodipyrido[1,2-b:2′,1′-f][1,2,4]triazine-6,8-dione]", "EC50": 0.0114}, {"smiles": "CC1(c2ccccc2)CCCC2N(CC3CC3)C(=O)c3c(O)c(=O)ccn3N21", "note": "(single isomer, unassigned) [Compound 37B, 5-(cyclopropylmethyl)-7-hydroxy-1-methyl-1-phenyl-1,2,3,4,4a,5-hexahydrodipyrido[1,2-b:2′,1′-f][1,2,4]triazine-6,8-dione]", "EC50": 1.24}, {"smiles": "CC1(c2ccccc2)CCCC2N(CCC(F)(F)F)C(=O)c3c(O)c(=O)ccn3N21", "note": "(single isomer, unassigned) [Compound 38A, 7-hydroxy-1-methyl-1-phenyl-5-(3,3,3-trifluoropropyl)-1,2,3,4,4a,5-hexahydrodipyrido[1,2-b:2′,1′-f][1,2,4]triazine-6,8-dione]", "EC50": "> 8.1"}, {"smiles": "CC1(c2ccccc2)CCCC2N(CCC(F)(F)F)C(=O)c3c(O)c(=O)ccn3N21", "note": "(single isomer, unassigned) [Compound 38B, 7-hydroxy-1-methyl-1-phenyl-5-(3,3,3-trifluoropropyl)-1,2,3,4,4a,5-hexahydrodipyrido[1,2-b:2′,1′-f][1,2,4]triazine-6,8-dione]", "EC50": 0.0058}, {"smiles": "CC1(c2ccccn2)CCCC2N(CC(F)(F)F)C(=O)c3c(O)c(=O)ccn3N21", "note": "(single isomer, unassigned) [Compound 39A, 7-hydroxy-1-methyl-1-(pyridin-2-yl)-5-(2,2,2-trifluoroethyl)-1,2,3,4,4a,5-hexahydrodipyrido[1,2-b:2′,1′-f][1,2,4]triazine-6,8-dione]", "EC50": "> 8.1"}, {"smiles": "CC1(c2ccccn2)CCCC2N(CC(F)(F)F)C(=O)c3c(O)c(=O)ccn3N21", "note": "(single isomer, unassigned) [Compound 39B, 7-hydroxy-1-methyl-1-(pyridin-2-yl)-5-(2,2,2-trifluoroethyl)-1,2,3,4,4a,5-hexahydrodipyrido[1,2-b:2′,1′-f][1,2,4]triazine-6,8-dione]", "EC50": 0.0101}, {"smiles": "CC1(c2ccccc2)CCCC2N(CC3COC3)C(=O)c3c(O)c(=O)ccn3N21", "note": "(single isomer, unassigned) [Compound 40A, 7-hydroxy-1-methyl-5-(oxetan-3-ylmethyl)-1-phenyl-1,2,3,4,4a,5-hexahydrodipyrido[1,2-b:2′,1′-f][1,2,4]triazine-6,8-dione]", "EC50": 0.0144}, {"smiles": "CC1(c2ccccc2)CCCC2N(CC3COC3)C(=O)c3c(O)c(=O)ccn3N21", "note": "(single isomer, unassigned) [Compound 40B, 7-hydroxy-1-methyl-5-(oxetan-3-ylmethyl)-1-phenyl-1,2,3,4,4a,5-hexahydrodipyrido[1,2-b:2′,1′-f][1,2,4]triazine-6,8-dione]", "EC50": "> 8.1"}, {"smiles": "CC1(c2nccs2)CCCC2N(CC(F)(F)F)C(=O)c3c(O)c(=O)ccn3N21", "note": "(single isomer, unassigned) [Compound 41A, 7-hydroxy-1-methyl-1-(thiazol-2-yl)-5-(2,2,2-trifluoroethyl)-1,2,3,4,4a,5-hexahydrodipyrido[1,2-b:2′,1′-f][1,2,4]triazine-6,8-dione]", "EC50": "> 8.1"}, {"smiles": "CC1(c2nccs2)CCCC2N(CC(F)(F)F)C(=O)c3c(O)c(=O)ccn3N21", "note": "(single isomer, unassigned) [Compound 41B, 7-hydroxy-1-methyl-1-(thiazol-2-yl)-5-(2,2,2-trifluoroethyl)-1,2,3,4,4a,5-hexahydrodipyrido[1,2-b:2′,1′-f][1,2,4]triazine-6,8-dione]", "EC50": 0.0111}, {"smiles": "CC1(c2ccccc2)CCCC2N(CC3CC4(CCC4)C3)C(=O)c3c(O)c(=O)ccn3N21", "note": "(single isomer, unassigned) [Compound 42A, 7-hydroxy-1-methyl-1-phenyl-5-(spiro[3.3]heptan-2-ylmethyl)-1,2,3,4,4a,5-hexahydrodipyrido[1,2-b:2′,1′-f][1,2,4]triazine-6,8-dione]", "EC50": "> 8.1"}, {"smiles": "CC1(c2ccccc2)CCCC2N(CC3CC4(CCC4)C3)C(=O)c3c(O)c(=O)ccn3N21", "note": "(single isomer, unassigned) [Compound 42B, 7-hydroxy-1-methyl-1-phenyl-5-(spiro[3.3]heptan-2-ylmethyl)-1,2,3,4,4a,5-hexahydrodipyrido[1,2-b:2′,1′-f][1,2,4]triazine-6,8-dione]", "EC50": 0.0495}, {"smiles": "CC1CC2N(C)C(=O)c3c(O)c(=O)ccn3N2C(C)(c2ccccc2)C1", "note": "(single isomer, unassigned) [Compound 43A, 7-hydroxy-1,3,5-trimethyl-1-phenyl-1,2,3,4,4a,5-hexahydrodipyrido[1,2-b:2′,1′-f][1,2,4]triazine-6,8-dione]", "EC50": 1.17}]}]}
